From patent US20230131899A1, “INHIBITORS OF MICROBIALLY INDUCED AMYLOID” (Axial Therapeutics, Inc., priority 2020, published 2023)
Like-named read-outs stand apart in the source and are kept apart here.

Target: T1, human α-synuclein (Homo sapiens, UniProt P37840)
T1 construct: the full-length gene for untagged human α-synuclein was inserted; made in house; host or cells: E. coli BL21(DE3), plasmid derived from pT7 or pET11a
Assay: Cell-free Thioflavin T assay of α-synuclein aggregation (αSyn ThT Assay)
Type: biochemical
Conditions: αSyn 50 μM, compounds at 100 μM
Method in brief: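 Untagged full-length human α-synuclein from E. coli, 50 μM, with 20-40 μM ThT, 1% DMSO, compound at 20-100 μM and a glass bead, 37° C. with shaking. Fluorescence (ex 438/em 495 nm) read hourly to 73 h. Compound-only background subtracted and values normalised to vehicle at 36-72 h or final timepoint, giving % inhibition.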

[1] = mean % inhibition of αSyn aggregation relative to DMSO control, read-out: αSyn ThT Assay % Inhibition
[2] = class symbol, read-out: αSyn ThT Assay % Inhibition (activity range)

Row | SMILES | inhibition at 100 µM [1] | inhibition at 100 µM [2]
1 | O=C(O)C1CN(CCCCO)S(=O)(=O)c2c(-c3cccc(C(F)(F)F)c3)c(Cc3cccc4ccccc34)c(NC3CCCC3)c(=O)n21 (centres unmarked) [Compound 121, 7-(cyclopentylamino)-2-(4-hydroxybutyl)-8-(naphthalen-1-ylmethyl)-6-oxo-9-(3-(trifluoromethyl)phenyl)-3,4-dihydro-2H,6H-pyrido[1,2-e][1,2,5]thiadiazine-4-carboxylic acid 1,1-dioxide] | 27% | 11 to 30%
2 | C=CCCN1CC(C(=O)O)n2c(c(-c3cccc(C(F)(F)F)c3)c(Cc3cccc4ccccc34)cc2=O)S1(=O)=O (centres unmarked) [Compound 024, 2-(but-3-en-1-yl)-8-(naphthalen-1-ylmethyl)-6-oxo-9-(3-(trifluoromethyl)phenyl)-3,4-dihydro-2H,6H-pyrido[1,2-e][1,2,5]thiadiazine-4-carboxylic acid 1,1-dioxide] | 69% | > 60%
3 | O=C(O)C1CSc2c(-c3cccc(C(F)(F)F)c3)c(Cc3cccc4ccccc34)cc(=O)n21 (racemic) [Compound 011, 7-(naphthalen-1-ylmethyl)-5-oxo-8-(3-(trifluoromethyl)phenyl)-2,3-dihydro-5H-thiazolo[3,2-a]pyridine-3-carboxylic acid] | 56% | 31 to 60%
4 | CCN1CC(C(=O)O)n2c(c(-c3cccc(C(F)(F)F)c3)c(Cc3cccc4ccccc34)cc2=O)S1(=O)=O (single isomer, unassigned) [Compound 015a, 2-ethyl-8-(naphthalen-1-ylmethyl)-6-oxo-9-(3-(trifluoromethyl)phenyl)-3,4-dihydro-2H,6H-pyrido[1,2-e][1,2,5]thiadiazine-4-carboxylic acid 1,1-dioxide] | 62% | > 60%
5 | Nc1c(Cc2cccc3ccccc23)c(-c2cccc(C(F)(F)F)c2)c2n(c1=O)C(C(=O)O)CS2 (racemic) [Compound 020, 6-amino-7-(naphthalen-1-ylmethyl)-5-oxo-8-(3-(trifluoromethyl)phenyl)-2,3-dihydro-5H-thiazolo[3,2-a]pyridine-3-carboxylic acid] | 53% | 31 to 60%
6 | O=C(O)C1CN(CCCO)S(=O)(=O)c2c(-c3cccc(C(F)(F)F)c3)c(Cc3cccc4ccccc34)c(NC3CCCC3)c(=O)n21 (centres unmarked) [Compound 120, 7-(cyclopentylamino)-2-(3-hydroxypropyl)-8-(naphthalen-1-ylmethyl)-6-oxo-9-(3-(trifluoromethyl)phenyl)-3,4-dihydro-2H,6H-pyrido[1,2-e][1,2,5]thiadiazine-4-carboxylic acid 1,1-dioxide] | 40% | 31 to 60%
7 | CCc1c(Cc2cccc3ccccc23)c(-c2cccc(C(F)(F)F)c2)c2n(c1=O)C(C(=O)O)CN(C1CCCCC1)S2(=O)=O (centres unmarked) [Compound 116, 2-cyclohexyl-7-ethyl-8-(naphthalen-1-ylmethyl)-6-oxo-9-(3-(trifluoromethyl)phenyl)-3,4-dihydro-2H,6H-pyrido[1,2-e][1,2,5]thiadiazine-4-carboxylic acid 1,1-dioxide] | 47% | 31 to 60%
8 | CN(C)Cc1c(Cc2cccc3ccccc23)c(-c2cccc(C(F)(F)F)c2)c2n(c1=O)C(C(=O)O)CS2 (centres unmarked) [Compound 075, 6-((dimethylamino)methyl)-7-(naphthalen-1-ylmethyl)-5-oxo-8-(3-(trifluoromethyl)phenyl)-2,3-dihydro-5H-thiazolo[3,2-a]pyridine-3-carboxylic acid] | 2% | -10 to 10%
9 | Nc1c(Cc2cccc3ccccc23)c(-c2cccc(C(F)(F)F)c2)c2n(c1=O)C(C(=O)O)CS2(=O)=O (centres unmarked) [Compound 023, 6-amino-7-(naphthalen-1-ylmethyl)-5-oxo-8-(3-(trifluoromethyl)phenyl)-2,3-dihydro-5H-thiazolo[3,2-a]pyridine-3-carboxylic acid 1,1-dioxide] | 21% | 11 to 30%
10 | COc1ccc(CN2C[C@@H](C(=O)O)n3c(c(-c4cccc(C(F)(F)F)c4)c(Cc4cccc5ccccc45)cc3=O)S2(=O)=O)cc1 (single isomer, unassigned) [Compound 026a] | 51% | 31 to 60%
11 | CN(C)CCN1CC(C(=O)O)n2c(c(-c3cccc(C(F)(F)F)c3)c(Cc3cccc4ccccc34)cc2=O)S1(=O)=O (centres unmarked) [Compound 017, 2-(2-(dimethylamino)ethyl)-8-(naphthalen-1-ylmethyl)-6-oxo-9-(3-(trifluoromethyl)phenyl)-3,4-dihydro-2H,6H-pyrido[1,2-e][1,2,5]thiadiazine-4-carboxylic acid 1,1-dioxide] | 53% | 31 to 60%
12 | CCCN1CC(C(=O)O)n2c(c(-c3cccc(C(F)(F)F)c3)c(Cc3cccc4ccccc34)cc2=O)S1(=O)=O (racemic) [Compound 016, 8-(naphthalen-1-ylmethyl)-6-oxo-2-propyl-9-(3-(trifluoromethyl)phenyl)-3,4-dihydro-2H,6H-pyrido[1,2-e][1,2,5]thiadiazine-4-carboxylic acid 1,1-dioxide] | 68% | > 60%
13 | O=C(O)[C@@H]1CS(=O)(=O)c2c(-c3cccc(C(F)(F)F)c3)c(Cc3cccc4ccccc34)cc(=O)n21 (single isomer, unassigned) [Compound 010a, 7-(naphthalen-1-ylmethyl)-5-oxo-8-(3-(trifluoromethyl)phenyl)-2,3-dihydro-5H-thiazolo[3,2-a]pyridine-3-carboxylic acid 1,1-dioxide] | 41% | 31 to 60%
14 | O=C(O)C1CN(CCCCCO)S(=O)(=O)c2c(-c3cccc(C(F)(F)F)c3)c(Cc3cccc4ccccc34)c(NC3CCCC3)c(=O)n21 (centres unmarked) [Compound 122, 7-(cyclopentylamino)-2-(5-hydroxypentyl)-8-(naphthalen-1-ylmethyl)-6-oxo-9-(3-(trifluoromethyl)phenyl)-3,4-dihydro-2H,6H-pyrido[1,2-e][1,2,5]thiadiazine-4-carboxylic acid 1,1-dioxide] | 38% | 31 to 60%
15 | O=C(O)C1CSc2c(-c3cccc(C(F)(F)F)c3)c(Cc3cccc4ccccc34)cc(=O)n21 (single isomer, unassigned) [Compound 011a, 7-(naphthalen-1-ylmethyl)-5-oxo-8-(3-(trifluoromethyl)phenyl)-2,3-dihydro-5H-thiazolo[3,2-a]pyridine-3-carboxylic acid] | 13% | 11 to 30%
16 | O=C(O)C1C[S+]([O-])c2c(-c3cccc(C(F)(F)F)c3)c(Cc3cccc4ccccc34)cc(=O)n21 (racemic) [Compound 027b, 7-(naphthalen-1-ylmethyl)-5-oxo-8-(3-(trifluoromethyl)phenyl)-2,3-dihydro-5H-thiazolo[3,2-a]pyridine-3-carboxylic acid 1-oxide] | 4% | -10 to 10%
17 | O=C(O)C1CSc2c(-c3cccc(C(F)(F)F)c3)c(Cc3cccc4ccccc34)nc(=O)n21 (centres unmarked) [Compound 022, 7-(naphthalen-1-ylmethyl)-5-oxo-8-(3-(trifluoromethyl)phenyl)-2,3-dihydro-5H-thiazolo[3,2-c]pyrimidine-3-carboxylic acid] | 49% | 31 to 60%
18 | CN1CC(C(N)=O)n2c(c(-c3cccc(C(F)(F)F)c3)c(Cc3cccc4ccccc34)cc2=O)S1(=O)=O (centres unmarked) [Compound 030, 2-methyl-8-(naphthalen-1-ylmethyl)-6-oxo-9-(3-(trifluoromethyl)phenyl)-3,4-dihydro-2H,6H-pyrido[1,2-e][1,2,5]thiadiazine-4-carboxamide 1,1-dioxide] | 4% | -10 to 10%
19 | CCCN1CC(C(=O)O)n2c(c(-c3cccc(C(F)(F)F)c3)c(Cc3cccc4ccccc34)c(NC3CCCC3)c2=O)S1(=O)=O (centres unmarked) [Compound 126, 7-(cyclopentylamino)-8-(naphthalen-1-ylmethyl)-6-oxo-2-propyl-9-(3-(trifluoromethyl)phenyl)-3,4-dihydro-2H,6H-pyrido[1,2-e][1,2,5]thiadiazine-4-carboxylic acid 1,1-dioxide] | 32% | 31 to 60%
20 | NC(=O)CN1CC(C(=O)O)n2c(c(-c3cccc(C(F)(F)F)c3)c(Cc3cccc4ccccc34)cc2=O)S1(=O)=O (centres unmarked) [Compound 028, 2-(2-amino-2-oxoethyl)-8-(naphthalen-1-ylmethyl)-6-oxo-9-(3-(trifluoromethyl)phenyl)-3,4-dihydro-2H,6H-pyrido[1,2-e][1,2,5]thiadiazine-4-carboxylic acid 1,1-dioxide] | 33% | 31 to 60%
21 | O=C(O)[C@H]1CS(=O)(=O)c2c(-c3cccc(C(F)(F)F)c3)c(Cc3cccc4ccccc34)cc(=O)n21 (single isomer, unassigned) [Compound 010b, 7-(naphthalen-1-ylmethyl)-5-oxo-8-(3-(trifluoromethyl)phenyl)-2,3-dihydro-5H-thiazolo[3,2-a]pyridine-3-carboxylic acid 1,1-dioxide] | 35% | 31 to 60%
22 | CN1CC(C(=O)O)n2c(c(-c3cccc(C(F)(F)F)c3)c(Cc3cccc4ccccc34)c(C(N)=O)c2=O)S1(=O)=O (centres unmarked) [Compound 109, 7-carbamoyl-2-methyl-8-(naphthalen-1-ylmethyl)-6-oxo-9-(3-(trifluoromethyl)phenyl)-3,4-dihydro-2H,6H-pyrido[1,2-e][1,2,5]thiadiazine-4-carboxylic acid 1,1-dioxide] | 99% | > 60%
